Laboratory results reported in PubChem BioAssay AID1919015 (Molecular Pharmacology Branch, DTP, NCI, 2023).
pIC50: −log10 of the molar value.

System: OVCAR-5 complex spheroids with HUVEC/MSC, viability, % test/control
Experiment: Anticancer human tumor OVCAR-5 cell line growth inhibition [AhR];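 also: spheroids exposed to compounds for 7 days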;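 as to viability, T/C: 100% = DMSO vehicle control wells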
Settings: for pIC50: curve of first compound; for viability, T/C: stronger effect = lower value; active = viability on the fitted dose curve at most 10% of control; inactive = the rest
Method in brief: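 Spheroids combined tumor cells with HUVEC endothelial cells and human MSCs as stroma. AhR antagonists were paired with standard or investigational drugs, each dosed in half-log steps down from near clinical Cmax, or from 10 microM where Cmax was unknown.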

CC1(C)CCC(CN2CCN(c3ccc(C(=O)NS(=O)(=O)c4ccc(NCC5CCOCC5)c([N+](=O)[O-])c4)c(Oc4cnc5[nH]ccc5c4)c3)CC2)=C(c2ccc(Cl)cc2)C1 + Cc1ccccc1N=Nc1ccc(NC(=O)c2ccnn2C)c(C)c1
inactive: viability, T/C (second compound 0.1 µM, first compound 0.0316 µM) 102% | viability, T/C (second compound 0.1 µM, first compound 0.1 µM) 101% | viability, T/C (second compound 0.1 µM, first compound 0.316 µM) 102% | viability, T/C (second compound 0.1 µM, first compound 1 µM) 95.7% | viability, T/C (second compound 0.1 µM, first compound 3.16 µM) 99.2% | viability, T/C (second compound 0.1 µM, first compound 10 µM) 52.7% | viability, T/C (second compound 0.316 µM, first compound 0.0316 µM) 102% | viability, T/C (second compound 0.316 µM, first compound 0.1 µM) 106% | viability, T/C (second compound 0.316 µM, first compound 0.316 µM) 106% | viability, T/C (second compound 0.316 µM, first compound 1 µM) 103% | viability, T/C (second compound 0.316 µM, first compound 3.16 µM) 105% | viability, T/C (second compound 0.316 µM, first compound 10 µM) 53% | viability, T/C (second compound 1 µM, first compound 0.0316 µM) 102% | viability, T/C (second compound 1 µM, first compound 0.1 µM) 113% | viability, T/C (second compound 1 µM, first compound 0.316 µM) 107% | viability, T/C (second compound 1 µM, first compound 1 µM) 112% | viability, T/C (second compound 1 µM, first compound 3.16 µM) 104% | viability, T/C (second compound 1 µM, first compound 10 µM) 56.9% | viability, T/C (second compound 3.16 µM, first compound 0.0316 µM) 103% | viability, T/C (second compound 3.16 µM, first compound 0.1 µM) 115% | viability, T/C (second compound 3.16 µM, first compound 0.316 µM) 108% | viability, T/C (second compound 3.16 µM, first compound 1 µM) 112% | viability, T/C (second compound 3.16 µM, first compound 3.16 µM) 109% | viability, T/C (second compound 3.16 µM, first compound 10 µM) 54.2% | viability, T/C (second compound 10 µM, first compound 0.0316 µM) 109% | viability, T/C (second compound 10 µM, first compound 0.1 µM) 107% | viability, T/C (second compound 10 µM, first compound 0.316 µM) 105% | viability, T/C (second compound 10 µM, first compound 1 µM) 108% | viability, T/C (second compound 10 µM, first compound 3.16 µM) 105% | viability, T/C (second compound 10 µM, first compound 10 µM) 57.3%
< 5.00: pIC50 (second compound 0.1 µM) | pIC50 (second compound 0.316 µM) | pIC50 (second compound 1 µM) | pIC50 (second compound 3.16 µM) | pIC50 (second compound 10 µM)

CCN(c1cc(-c2ccc(CN3CCOCC3)cc2)cc(C(=O)NCc2c(C)cc(C)[nH]c2=O)c1C)C1CCOCC1 + Cc1ccccc1N=Nc1ccc(NC(=O)c2ccnn2C)c(C)c1
inactive: viability, T/C (second compound 0.1 µM, first compound 0.00949 µM) 105% | viability, T/C (second compound 0.1 µM, first compound 0.03 µM) 106% | viability, T/C (second compound 0.1 µM, first compound 0.0949 µM) 102% | viability, T/C (second compound 0.1 µM, first compound 0.3 µM) 101% | viability, T/C (second compound 0.1 µM, first compound 0.949 µM) 95% | viability, T/C (second compound 0.1 µM, first compound 3 µM) 101% | viability, T/C (second compound 0.316 µM, first compound 0.00949 µM) 107% | viability, T/C (second compound 0.316 µM, first compound 0.03 µM) 109% | viability, T/C (second compound 0.316 µM, first compound 0.0949 µM) 107% | viability, T/C (second compound 0.316 µM, first compound 0.3 µM) 102% | viability, T/C (second compound 0.316 µM, first compound 0.949 µM) 102% | viability, T/C (second compound 0.316 µM, first compound 3 µM) 103% | viability, T/C (second compound 1 µM, first compound 0.00949 µM) 112% | viability, T/C (second compound 1 µM, first compound 0.03 µM) 110% | viability, T/C (second compound 1 µM, first compound 0.0949 µM) 111% | viability, T/C (second compound 1 µM, first compound 0.3 µM) 115% | viability, T/C (second compound 1 µM, first compound 0.949 µM) 107% | viability, T/C (second compound 1 µM, first compound 3 µM) 110% | viability, T/C (second compound 3.16 µM, first compound 0.00949 µM) 115% | viability, T/C (second compound 3.16 µM, first compound 0.03 µM) 114% | viability, T/C (second compound 3.16 µM, first compound 0.0949 µM) 115% | viability, T/C (second compound 3.16 µM, first compound 0.3 µM) 109% | viability, T/C (second compound 3.16 µM, first compound 0.949 µM) 109% | viability, T/C (second compound 3.16 µM, first compound 3 µM) 112% | viability, T/C (second compound 10 µM, first compound 0.00949 µM) 106% | viability, T/C (second compound 10 µM, first compound 0.03 µM) 103% | viability, T/C (second compound 10 µM, first compound 0.0949 µM) 104% | viability, T/C (second compound 10 µM, first compound 0.3 µM) 105% | viability, T/C (second compound 10 µM, first compound 0.949 µM) 99.9% | viability, T/C (second compound 10 µM, first compound 3 µM) 98.2%
< 5.52: pIC50 (second compound 0.1 µM) | pIC50 (second compound 0.316 µM) | pIC50 (second compound 1 µM) | pIC50 (second compound 3.16 µM) | pIC50 (second compound 10 µM)
